Measurements reported in US5208260A, “Vinyl Glycine derivatives for memory and learning enhancement or treatment of a cognitive disorder” (priority 1990, dated 1993).

Columns and labels:
neurons = settings: J. W. Olney (1969); J. W. Olney et al. (1971); cited from earlier work
[1] = system: strychnine-insensitive glycine receptor; settings: structure-activity relationships, literature; cited from earlier work
[2] = system: L-aspartate aminotransferase enzyme; settings: R. R. Rando, Nature, 250, 587-588 (1974); cited from earlier work
[3] = biological target: T1, strychnine-insensitive Glycine receptor (Rattus norvegicus, UniProt P35439); assay: [3H]Glycine binding inhibition, Triton-washed rat forebrain synaptic plasma membranes (SPM); settings: inhibition of 10 nM [3H]glycine binding, pH 7.4, 10 min at 2° C., nonspecific: 100 μM glycine, read-out: AFFINITY [3H]GLYCINE (Ki)
T1 construct: synaptic plasma membranes (SPM) prepared from rat forebrain; from tissue; host or cells: rat forebrain synaptic plasma membranes, male Sprague Dawley, 30-45 days old (animals from Sasco, St. Charles Mo.)
Description: (§1) [^3 H]Glycine binding was performed using Triton ×-100 washed synaptic plasma membranes (SPM) prepared from rat forebrain (30-45 day old, male Sprague Dawley; Sasco, St. Charles Mo.). The assay was initiated by the addition of 0.2-0.4 mg of SPM to an incubation containing 10 nM [^3 H]glycine (43.5 Ci/mmole; New England Nuclear, Boston Mass.), and various concentrations of the appropriate test compounds in a total volume of 1 ml, with all additions made in […] Tris/acetate, pH 7.4. Following a 10 min incubation at 2° C. the bound radioactivity was separated from the free by either centrifugation (12000 g for 25 min at 4° C.) or vacuum filtration through Whatman GF/B filters using a Brandel MB-18 Harvester. The Kd and Bmax values for [^3 H]glycine were similar using either separation technique. The radioactivity associated with the SPM was quantitated using liquid scintillation spectrometry. Ki values for the inhibition of [ ^3 H]glycine binding were determined using logit-log analysis, with nonspecific binding determined using 100 μM glycine. Modulation of [^3 H]TCP binding was performed using Triton ×-100 (0.04% v/v) treated rat SPM that had been extensively washed. Assay incubations were at 25° C. for 60 min and contained 5.0 nM [^3 H]TCP, and various concentrations of the test compound in 5 mM Tris/HCl, pH 7.4. The assay was stopped by rapid filtration, using a Brandel MB-48 Harvester, thru Whatman GF/B filters treated with 0.05% polyethylenimine and the samples washed four times with 2.0 mls cold buffer. Radioactivity associated with the filter was determined by liquid scintillation spectrometry as described above. Nonspecific binding was defined using 60 μM PCP.

NMDA receptor = biological target: T2, NMDA receptor (Rattus norvegicus, UniProt P35439); assay: Modulation of [3H]TCP binding, Triton-treated, extensively washed rat SPM (functional analysis, agonist/antagonist character); assay type: biochemical; settings: 1 h, 5.0 nM [3H]TCP, 25° C., 60 min, pH 7.4, % of maximal glycine stimulation, read-out: AG/ANTAG [3H]TCP % STIM
T2 construct: treated rat SPM that had been extensively washed; from tissue; host or cells: rat synaptic plasma membranes, Triton-treated and extensively washed
Description: as §1
*The stimulation of [^3 H]TCP binding (% STIM) was expressed as a […]

human subjects = settings: B. Saletu et al (1986); cited from earlier work
[4] = following milacemide administration; cited from earlier work
[5] = system: bacterial methionine-γ-lyase; settings: M. Johnson et al., Biochemistry, 20, 4325-4333 (1981); cited from earlier work

Structure (SMILES): N[C@@H](CCC(=O)O)C(=O)O [glutamic acid]
- excitatory and excitotoxic properties (neurons): both excitatory and excitotoxic properties

Structure (SMILES): C[C@@H](N)C(=O)O [D-alanine]
- affinity at strychnine-insensitive glycine receptor (in words) [1]: highest affinities

Structure (SMILES): CO/C=C/[C@H](N)C(=O)O (stereo in doubt) [L-2-amino-4-methoxy-trans-3-butenoic acid]
- inhibition of L-aspartate aminotransferase [2]: irreversible inhibitor

Structure (SMILES): C/C=C/[C@@H](N)C(=O)O (stereo in doubt) [Compound 2, trans-D-2-amino-pent-3-enoic acid]
- Ki [3]: 4.8 µM

Structure (SMILES): CCCCCC/C=C/[C@H](N)C(=O)O (stereo in doubt) [Compound 5, trans-L-2-amino-dec-3-enoic acid]
- Emax at 30 µM (NMDA receptor; CONC 30 (μ)): 78%
- Ki [3]: 0.95 µM

Structure (SMILES): N[C@H](/C=C/CCO)C(=O)O (stereo in doubt) [Compound 7, trans-D-2-amino--6-hydroxy-hex-3-enoic acid]
- Emax at 6 µM (NMDA receptor; CONC 6 (μ)): 67%
- Ki [3]: 0.28 µM

Structure (SMILES): N[C@H](CO)C(=O)O [D-serine]
- affinity at strychnine-insensitive glycine receptor (in words) [1]: highest affinities

Structure (SMILES): N[C@@H](CC(=O)O)C(=O)O [aspartic, aspartic acid]
- excitatory and excitotoxic properties (neurons): both excitatory and excitotoxic properties

Structure (SMILES): CCC/C=C/[C@@H](N)C(=O)O (stereo in doubt) [Compound 4, trans-D-2-amino-hept-3-enoic acid]
- Ki [3]: 1.8 µM

Structure (SMILES): CCCCCC/C=C/[C@@H](N)C(=O)O (stereo in doubt) [Compound 6, trans-D-2-amino-dec-3-enoic acid]
- Emax at 100 µM (NMDA receptor; CONC 100 (μ)): 48%
- Ki [3]: 55 µM

Structure (SMILES): CCC/C=C/[C@H](N)C(=O)O (stereo in doubt) [Compound 3, trans-L-2-amino-hept-3-enoic acid]
- Emax at 12 µM (NMDA receptor; CONC 12 (μ)): 66%
- Ki [3]: 4.9 µM

Structure (SMILES): N[C@@H](/C=C/CCO)C(=O)O (stereo in doubt) [Compound 8, trans-L-2-amino-6-hydroxy-hex-3-enoic acid]
- Ki [3]: 0.77 µM

Structure (SMILES): CCCCCNCC(N)=O [milacemide]
- memory-enhancing capabilities (human subjects): memory-enhancing capabilities
- brain glycine content [4]: increase in brain glycine content

Structure (SMILES): C/C=C/[C@H](N)C(=O)O (stereo in doubt) [Compound 1, trans-L-2-amino-pent-3-enoic acid]
- Emax at 40 µM (NMDA receptor; CONC 40 (μ)): 51%
- Ki [3]: 7.2 µM
- inhibition of bacterial methionine-γ-lyase [5]: inhibition of bacterial methionine-γ-lyase
